Assay results from US8178659B2, “Targets for the identification of antibiotics that are not susceptible to antibiotic resistance” (priority 2005, dated 2012).
Converted amounts (≈) assume the structure as drawn.

System: E. coli DH5 cells
Test: Minimum inhibitory concentration (MIC) of chloramphenicol in the specialized ribosome (CAT reporter) system
Type: cell-based
Settings: Escherichia coli, DH5CELLS
Source text: To examine the role of potential interactions within the 530 loop (FIG. 3.1) nucleotides involved in the proposed interactions were randomly mutated using PCR and cloned into pRNA16ST, a derivative of pRNA122 (Lee et al., 1996; Lee et al., 1997). pRNA 16ST contains only the 16 S rRNA from the rrnB operon rather then the entire operon. […] In this specialized in vivo system, the chloramphenicol acetyltransferase (CAT) reporter message is translated exclusively by plasmid-derived ribosomes that cannot translate normal cellular messages (Lee et al., 1996; Lee et al., 1997). Thus, the minimal inhibitory concentration (MIC) of chloramphenicol for each mutant is correlated to the level of function of the plasmid-derived ribosomes. This allows for the selection of functional mutants on chloramphenicol containing media. Survivors were then sequenced and assayed for function by determining the MIC for each mutant.
Minimum inhibitory concentration (MIC). MICs were determined by standard methods in microtiter plates. Overnight cultures grown in LB-Ap100 were diluted and induced in the same medium containing 1 mM IPTG for two to three hours at 37° C. Approximately 10^4 induced cells were then added to wells containing LB-Ap100+IPTG (1 mM) and chloramphenicol at increasing concentrations.

For `O=C(N[C@H](CO)[C@H](O)c1ccc([N+](=O)[O-])cc1)C(Cl)Cl` [chloramphenicol], the MIC (cells expressing wild-type ribosomes in the system (pRNA123)) was 700 µg/mL (≈ 2170 µM) and the MIC (uninduced wild-type plasmid (pRNA228) as well as a lethal clone) was 15 µg/mL (≈ 46.4 µM).
